Among the data in PubChem BioAssay (NCI) are TGI and GI50 values, retold here.

Each structure is given as a SMILES string. Converted amounts (≈) assume the structure as drawn.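 Where inhibition never reached the appropriate level, the endpoint shown equals the highest concentration tested. Otherwise, values were interpolated linearly from a five-concentration, 48-hour dose response in 96-well plates. GI50: concentration for 50% inhibition of growth. TGI: concentration producing complete growth inhibition.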

Experiment in all cases: growth of human tumour cells (NCI), 48 h
Assay [1] concerns M14 melanoma.
For assay [2], the system named is COLO 205 colon.
Assay [3] has as its system SN12C renal.
Assay [4] concerns CCRF-CEM leukemia.
Assay [5] deals with HT29 colon.
Assay [6] has as its system NCI-H460 lung.
The subject of assay [7] is SF-268 CNS.
In assay [8] the test system is UACC-62 melanoma.
Assay [9] deals with HOP-62 NSCLC.
The subject of assay [10] is A549 NSCLC.

Consider `O=c1oc2ccccc2c(O)c1Cc1ccc(Cc2c(O)c3ccccc3oc2=O)cc1`, for which the TGI in [1], in [2], in assay [3], in assay [4], in assay [5] and in [6] was over 100 µM throughout. Moreover, the TGI in [7], in assay [8], in [9] and in assay [10] was over 100 µM in each case.

For `O=C1NN(C2=NNC3(C(=O)N2)c2ccccc2-c2ccccc23)C(c2ccccc2)=N/C1=C/c1ccc(Cl)cc1`, the GI50 is 59.8 µg/mL (≈ 110 µM) in assay [1]; 69.2 µg/mL (≈ 127 µM) in assay [2]; 53.5 µg/mL (≈ 98.2 µM) in assay [3]; 52.6 µg/mL (≈ 96.5 µM) in [4]; 89.6 µg/mL (≈ 164 µM) in [5]; 48.7 µg/mL (≈ 89.3 µM) in [6]. In addition, the GI50 in [7] was 61 µg/mL (≈ 112 µM); in assay [8] it was 29.8 µg/mL (≈ 54.7 µM); in [9], 49.1 µg/mL (≈ 90 µM); in assay [10], 60.2 µg/mL (≈ 111 µM). The TGI in assay [1], in assay [2], in assay [3], in assay [4], in [5] and in assay [6] was over 150 µg/mL throughout. Further, the TGI was over 150 µg/mL in assay [7], 65.6 µg/mL in assay [8], over 150 µg/mL in assay [9] and over 150 µg/mL in [10].

`COC(=O)C(Cc1cn(C(C)n2cc(CC(NC(C)=O)C(=O)OC)c3ccccc32)c2ccccc12)NC(C)=O` (stereo not given): the TGI in assay [1], in [2], in [3], in assay [4], in assay [5] and in [6] was over 100 µM each time. Moreover, the TGI in assay [7], in assay [8], in [9] and in [10] was over 100 µM each time.
